Data taken from patent US5625056A, “Derivatives of cyclic guanosine-3',5'-monophosphorothioate” (BIOLOG Life Science Institute, priority 1992, dated 1997).
Each block holds one molecule with its values, some of them ahead of it.

Assays:
[1] = molecular target: T1, cGMP-dependent protein kinases (Bos taurus, UniProt P00516); assay: Inhibition/activation of cGMP-dependent protein kinase (cGK); format: biochemical, bovine
T1 construct: Isolation of cGK I from bovine lung; from tissue; host or cells: bovine lung
T1 sequence (P00516 2-671 limits assumed): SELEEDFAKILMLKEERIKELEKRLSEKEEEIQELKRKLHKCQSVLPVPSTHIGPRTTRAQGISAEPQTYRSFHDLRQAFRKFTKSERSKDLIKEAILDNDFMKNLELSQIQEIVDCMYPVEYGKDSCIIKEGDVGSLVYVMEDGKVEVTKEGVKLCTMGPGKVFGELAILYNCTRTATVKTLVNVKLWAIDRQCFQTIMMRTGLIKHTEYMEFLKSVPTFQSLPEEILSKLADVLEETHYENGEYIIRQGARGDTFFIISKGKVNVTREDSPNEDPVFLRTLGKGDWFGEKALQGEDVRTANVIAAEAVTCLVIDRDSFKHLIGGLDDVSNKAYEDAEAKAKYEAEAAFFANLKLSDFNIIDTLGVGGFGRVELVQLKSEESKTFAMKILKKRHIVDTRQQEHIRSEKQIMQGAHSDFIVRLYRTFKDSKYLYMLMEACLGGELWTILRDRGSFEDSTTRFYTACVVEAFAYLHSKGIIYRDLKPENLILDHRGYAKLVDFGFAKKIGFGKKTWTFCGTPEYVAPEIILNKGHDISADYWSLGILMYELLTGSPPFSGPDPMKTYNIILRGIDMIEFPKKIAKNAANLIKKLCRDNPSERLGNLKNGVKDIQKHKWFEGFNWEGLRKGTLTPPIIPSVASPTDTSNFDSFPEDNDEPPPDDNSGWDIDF
Method: (§1) Isolation of cGK I from bovine lung and of cAK II from bovine heart is performed as has been already published (Walter et al., J. Biol. Chem., 255, 3757-3762 (1980)). Protein kinase activity is determined according to the method of Roskoski (Methods Enzymol., 99, 3-6 (1983)). In vitro data on membranes of human thrombocytes are obtained as has already been described by Halbrugge et al. (Eur. J. Biochem., 185, 41-50, (1989)).

[2] = tested on: phosphorylation of a 46/50 kDa-band in membranes of human thrombocytes; assay: cGMP-modulated phosphorylation of a 46/50 kDa band in membranes of human thrombocytes; format: biochemical
Method: as §1
(§2) Compounds with extraordinary good membrane permeability are tested in vivo with intact human thrombocytes according to Halbrugge et al. CJ. Biol. Chem., 265, 3088-3093 (1990)).

[3] = tested on: cGMP signal transduction pathway; assay: Selective block of the cGMP signal transduction pathway; conditions: selectivity over cAMP-mediated effects
perfused aorta muscle = assay: SIN 1-stimulated relaxation in perfused aorta muscle
[4] = tested on: cGMP-dependent phosphorylation of three proteins of the masses 46, 50 and 130 kDa; assay: cGMP-dependent phosphorylation of three proteins of 46, 50 and 130 kDa
physchem = conditions: reversed-phase hplc
cGK I = molecular target: T2, cGK I (Bos taurus, UniProt P00516); assay: Inhibition of isolated cGK I; format: biochemical, bovine
T2 construct: Isolation of cGK I from bovine lung; from tissue; host or cells: bovine lung
T2 sequence (P00516 1-671): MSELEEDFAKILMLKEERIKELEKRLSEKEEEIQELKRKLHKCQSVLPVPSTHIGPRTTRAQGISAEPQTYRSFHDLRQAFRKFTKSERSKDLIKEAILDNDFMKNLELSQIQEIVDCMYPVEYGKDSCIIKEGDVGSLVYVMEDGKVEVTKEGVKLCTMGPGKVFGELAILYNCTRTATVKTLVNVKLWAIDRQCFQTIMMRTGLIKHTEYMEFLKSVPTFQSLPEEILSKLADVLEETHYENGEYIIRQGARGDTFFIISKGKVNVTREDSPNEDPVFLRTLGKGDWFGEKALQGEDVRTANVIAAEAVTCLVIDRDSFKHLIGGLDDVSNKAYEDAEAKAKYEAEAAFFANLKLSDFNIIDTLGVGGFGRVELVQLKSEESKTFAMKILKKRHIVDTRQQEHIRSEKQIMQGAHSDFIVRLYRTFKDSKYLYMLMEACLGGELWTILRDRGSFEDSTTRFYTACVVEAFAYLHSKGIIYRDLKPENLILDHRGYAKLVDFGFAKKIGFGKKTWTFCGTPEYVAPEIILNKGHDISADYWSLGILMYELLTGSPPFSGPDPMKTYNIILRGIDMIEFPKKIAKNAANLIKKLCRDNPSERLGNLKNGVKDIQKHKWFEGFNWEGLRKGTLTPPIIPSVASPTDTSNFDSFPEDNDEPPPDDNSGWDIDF
Method: as §1

cAK II = molecular target: T3, cAK II (Bos taurus, UniProt P00515); assay: Activation of cAK II; format: biochemical, bovine; conditions: at high concentrations
T3 construct: of cAK II from bovine heart; from tissue; host or cells: bovine heart
T3 sequence (P00515 2-401 limits assumed): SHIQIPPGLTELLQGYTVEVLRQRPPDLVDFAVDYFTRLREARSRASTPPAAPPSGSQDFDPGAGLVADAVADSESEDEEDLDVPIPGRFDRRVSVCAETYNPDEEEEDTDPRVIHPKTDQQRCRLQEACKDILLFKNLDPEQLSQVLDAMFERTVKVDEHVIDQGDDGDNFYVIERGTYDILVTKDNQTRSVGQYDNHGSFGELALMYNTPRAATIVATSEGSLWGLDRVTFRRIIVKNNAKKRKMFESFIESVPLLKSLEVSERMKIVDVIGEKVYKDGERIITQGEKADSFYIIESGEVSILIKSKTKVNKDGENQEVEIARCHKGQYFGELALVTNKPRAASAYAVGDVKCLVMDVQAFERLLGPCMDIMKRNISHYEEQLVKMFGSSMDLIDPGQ
Method: as §1

[5] = tested on: cAMP-dependent phosphorylation of a 22- and a 240 kDa-band; assay: cAMP-dependent phosphorylation of 22 and 240 kDa bands in membranes of human thrombocytes; format: biochemical
Method: as §1, §2

[6] = tested on: cGMP-dependent phosphorylation in intact human thrombocytes; assay: cGMP-dependent phosphorylation in intact human thrombocytes (in vivo); format: cell-based
Method: as §2

[7] = tested on: cGMP-inhibited phosphodieserases (cGI-PDE); assay: Inhibition of cGMP-inhibited phosphodiesterases (cGI-PDE); format: biochemical
[8] = Cell membrane permeability; format: in vitro ADME
[9] = tested on: cAMP-dependent protein kinases type I (cAK I); conditions: Botelho et al. 1988; cited from earlier work
[10] = tested on: cAMP-dependent protein kinases type II (cAK II); conditions: Botelho et al. 1988; cited from earlier work
cAK = conditions: cited from earlier work
[11] = molecular target: T1, cGMP-dependent protein kinases; conditions: background literature (Butt et al. 1990); cited from earlier work
[12] = reversed-phase HPLC; has been reported; cited from earlier work

SMILES: O=c1c2nc(Br)n([C@@H]3O[C@@H]4CO[P@@](O)(=S)O[C@H]4[C@H]3O)c2nc2[nH]c(-c3ccccc3)cn12 [RP -8-Br-PET-cGMPS, Cyclic β-phenyl-1,N^2-etheno-8-bromoguanosine-3',5'-monophosphorothioate, RP -diastereomer]
type of inhibition of cGMP-dependent protein kinases [1]: competitive inhibitor
Ki ([1]; cGMP-dependent protein kinases, competitive inhibitor, read-out: inhibition constant Ki): 0.03 µM
effectivity at thrombocyte membranes, factor over RP -8-pCPT-cGMPS ([2]; thrombocyte membranes, relative to RP -8-pCPT-cGMPS): 5-10
block of cGMP signal transduction pathway [3]: blocks selectively the cGMP signal transduction pathway without affecting cAMP-mediated effects
SIN 1-stimulated relaxation (perfused aorta muscle): inhibited
cGMP-dependent phosphorylation of three proteins [4]: inhibited
chromatographic logP (physchem): 3.22

type of inhibition of isolated cGK I (cGK I; isolated cGK I): competitive inhibitor
Ki (cGK I; read-out: inhibition constant Ki): 0.7 µM
agonism for cAK II (cAK II): weakly partial agonist
cell membrane permeability [8]: excellent cell membrane permeability
chromatographic logP (physchem): 2.82
SMILES: Nc1nc2c(nc(Sc3ccc(Cl)cc3)n2[C@@H]2O[C@@H]3CO[P@@](O)(=S)O[C@H]3[C@H]2O)c(=O)[nH]1 [RP -8-pCPT-cGMPS, Cyclic 8-(4-chlorophenylthio)-guanosine-3',5'-monophosphorothioate, RP -diastereomer]
phosphorylation of a 46/50 kDa-band ([2]; membranes of human thrombocytes): inhibits the phosphorylation
cAMP-dependent phosphorylation of a 22- and a 240 kDa-band [5]: not disturbed
cGMP-dependent (cGMP-mediated) phosphorylation [6]: inhibits the cGMP-dependent phosphorylation even in intact human thrombocytes
inhibition of cGI-PDE [7]: poor inhibitor

SMILES: O=c1c2ncn([C@@H]3O[C@@H]4CO[P@@](O)(=S)O[C@H]4[C@H]3O)c2[nH]c2nc(-c3ccccc3)cn12 [RP -PET-cGMPS, Cyclic β-phenyl-1,N^2-ethenoguanosine-3',5'-monophosphorothioate, RP -diastereomer]
chromatographic logP (physchem): 2.81

SMILES: Nc1ncnc2c1ncn2[C@@H]1O[C@@H]2CO[P@@](O)(=S)O[C@H]2[C@H]1O [RP -cAMPS, adenosine-3',5'-monophosphorothioate]
inhibition of cAK I [9]: competitive inhibitor
inhibition of cAK II [10]: competitive inhibitor
cAMP antagonism (cAK; Botelho et al. 1988): antagonist of cAMP

SMILES: Nc1nc2c(ncn2[C@@H]2O[C@@H]3CO[P@@](O)(=S)O[C@H]3[C@H]2O)c(=O)[nH]1 [RP -cGMPS, RP -Guanosine-3',5'-monophosphorothioate]
inhibitory properties / specificity for cGK [11]: lacks the required specificity for cGMP-dependent protein kinase (cGK)
inhibition/agonism of cAK (cAK; background literature): inhibits cAK as well

activation of isolated cGK ([1]; isolated cGK): activator
chromatographic logP (physchem): 2.84
SMILES: Nc1nc2c(nc(Sc3ccc(Cl)cc3)n2[C@@H]2O[C@@H]3CO[P@](O)(=S)O[C@H]3[C@H]2O)c(=O)[nH]1 [SP -8-pCPT-cGMPS, Cyclic 8-(4-chlorophenylthio)-guanosine-3',5'-monophosphorothioate, SP -diastereomer]
cGMP-dependent (cGMP-mediated) phosphorylation [6]: activator

SMILES: O=c1c2ncn([C@@H]3O[C@@H]4CO[P@](O)(=S)O[C@H]4[C@H]3O)c2[nH]c2nc(-c3ccccc3)cn12 [SP -PET-cGMPS, Cyclic β-phenyl-1,N^2-ethenoguanosine-3',5'-monophosphorothioate, SP -diastereomer]
chromatographic logP (physchem): 2.83

chromatographic logP (physchem): 0.77
SMILES: Nc1nc2c(ncn2[C@@H]2O[C@@H]3COP(=O)(O)O[C@H]3[C@H]2O)c(=O)[nH]1 [cGMP, guanosine-3',5'-monophosphate, reference compound]
log KW [12]: 0.85
